Consider twelve molecules from PubChem BioAssay AID248 (DTP/NCI, 2004).

The structures appear in SMILES notation. Where “and” joins values, the source holds several entries; their conditions need not be identical. Equal values may be shown once. Inconclusive results and toxic doses are left out.

The subject of this experiment is L1210 leukemia ip in BDF1 mice, survival T/C. The experiment can be described thus: NCI In Vivo Anticancer Drug Screen. Data for tumor model L1210 Leukemia (intraperitoneal) in B6D2F1 (BDF1) mice. As to conditions: higher = longer survival. The essentials: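 Tumor cells were implanted, animals were treated, and survival was followed. The result divides the treated measurement by the vehicle-control measurement.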

Setting [1] is: endpoint: mean survival time, dose: 100.0 mg/kg/injection, schedule: Q04DX003 (ip), vehicle: saline with Tween-80.
The mark [2] stands for this setting: endpoint: mean survival time, dose: 200.0 mg/kg/injection, schedule: Q04DX003 (ip), vehicle: saline with Tween-80.

Turning to `CCCCN(C)/N=N/c1nc[nH]c1C(N)=O`, the T/C was 111 % of control (endpoint: mean survival time, dose: 4.0 mg/kg/injection, schedule: Q01DX009 (ip), vehicle: other); 111 % of control (endpoint: mean survival time, dose: 7.0 mg/kg/injection, schedule: Q01DX009 (ip), vehicle: other); 117 % of control (endpoint: mean survival time, dose: 12.25 mg/kg/injection, schedule: Q01DX009 (ip), vehicle: saline with Tween-80); 109 % of control (endpoint: mean survival time, dose: 17.6 mg/kg/injection, schedule: Q01DX009 (ip), vehicle: carboxymethylcellulose (CMC)); 124 % of control (endpoint: mean survival time, dose: 20.0 mg/kg/injection, schedule: Q01DX Z (ip), vehicle: carboxymethylcellulose (CMC)); 120 % of control (endpoint: mean survival time, dose: 26.0 mg/kg/injection, schedule: Q01DX009 (ip), vehicle: carboxymethylcellulose (CMC)). Further, the T/C is 168 % of control (endpoint: mean survival time, dose: 36.0 mg/kg/injection, schedule: Q01DX009 (ip), vehicle: other); 117 % of control (endpoint: mean survival time, dose: 36.7 mg/kg/injection, schedule: Q04DX003 (ip), vehicle: saline with Tween-80); 124 % of control (endpoint: mean survival time, dose: 40.0 mg/kg/injection, schedule: Q01DX009 (ip), vehicle: carboxymethylcellulose (CMC)); 164 % of control (endpoint: mean survival time, dose: 40.0 mg/kg/injection, schedule: Q01DX Z (ip), vehicle: carboxymethylcellulose (CMC)); 153 % of control (endpoint: mean survival time, dose: 49.0 mg/kg/injection, schedule: Q01DX009 (ip), vehicle: saline with Tween-80); 107 % of control (endpoint: mean survival time, dose: 53.0 mg/kg/injection, schedule: Q01DX001 (ip), vehicle: saline with Tween-80). The T/C is, setting by setting: (endpoint: mean survival time, dose: 60.0 mg/kg/injection, schedule: Q01DX009 (ip), vehicle: other) 154 % of control; (endpoint: mean survival time, dose: 73.5 mg/kg/injection, schedule: Q04DX003 (ip), vehicle: saline with Tween-80) 122 % of control; (endpoint: mean survival time, dose: 80.0 mg/kg/injection, schedule: Q01DX Z (ip), vehicle: carboxymethylcellulose (CMC)) 158 % of control; (endpoint: mean survival time, dose: 88.0 mg/kg/injection, schedule: Q01DX001 (ip), vehicle: carboxymethylcellulose (CMC)) 103 % of control; (endpoint: mean survival time, dose: 88.0 mg/kg/injection, schedule: Q01DX001 (ip), vehicle: other) 121 % of control; (endpoint: mean survival time, dose: 100.0 mg/kg/injection, schedule: Q01DX001 (ip), vehicle: other) 119 % of control. Also, the T/C reads like this: (endpoint: mean survival time, dose: 100.0 mg/kg/injection, schedule: Q01DX009 (ip), vehicle: other) 90 % of control; (endpoint: mean survival time, dose: 106.0 mg/kg/injection, schedule: Q01DX001 (ip), vehicle: saline with Tween-80) 119 % of control; (endpoint: mean survival time, dose: 120.0 mg/kg/injection, schedule: Q01DX Z (ip), vehicle: carboxymethylcellulose (CMC)) 101 % of control; (endpoint: mean survival time, dose: 133.0 mg/kg/injection, schedule: Q01DX001 (ip), vehicle: carboxymethylcellulose (CMC)) 103 % of control; (endpoint: mean survival time, dose: 147.0 mg/kg/injection, schedule: Q04DX003 (ip), vehicle: saline with Tween-80) 153 % of control; (endpoint: mean survival time, dose: 160.0 mg/kg/injection, schedule: Q01DX009 (ip), vehicle: carboxymethylcellulose (CMC)) 98 % of control. Further, the T/C runs as follows: (endpoint: mean survival time, dose: 200.0 mg/kg/injection, schedule: Q01DX001 (ip), vehicle: carboxymethylcellulose (CMC)) 106 % of control; (endpoint: mean survival time, dose: 400.0 mg/kg/injection, schedule: Q01DX001 (ip), vehicle: other) 122 % of control; (endpoint: median survival time, dose: 10.0 mg/kg/injection, schedule: Q01DX009 (ip), vehicle: steriod suspending solution) 116 % of control; (endpoint: median survival time, dose: 20.0 mg/kg/injection, schedule: Q01DX009 (ip), vehicle: steriod suspending solution) 122 % of control; (endpoint: median survival time, dose: 40.0 mg/kg/injection, schedule: Q01DX009 (ip), vehicle: steriod suspending solution) 150 % of control and 155 % of control; (endpoint: median survival time, dose: 80.0 mg/kg/injection, schedule: Q01DX009 (ip), vehicle: steriod suspending solution) 155 % of control and 166 % of control. Further, where the note is “endpoint: median survival time, dose: 160.0 mg/kg/injection, schedule: Q01DX009 (ip), vehicle: steriod suspending solution”, the T/C is 100 % of control.
Take `O=S(=O)(F)c1ccccc1C[P+](c1ccccc1)(c1ccccc1)c1ccccc1`: the T/C is, setting by setting: (endpoint: mean survival time, dose: 1.56 mg/kg/injection, schedule: Q01DX009 (ip), vehicle: Klucel (hydroxypropylcellulose) (HPC)) 110 % of control; (endpoint: mean survival time, dose: 3.12 mg/kg/injection, schedule: Q01DX009 (ip), vehicle: Klucel (hydroxypropylcellulose) (HPC)) 118 % of control; (endpoint: mean survival time, dose: 6.25 mg/kg/injection, schedule: Q01DX009 (ip), vehicle: Klucel (hydroxypropylcellulose) (HPC)) 117 % of control.
As to `COc1ccc(C2NC(=O)N3C(c4ccc(OC)cc4)NC(=O)N23)cc1` (configuration not stated), the T/C (endpoint: mean survival time, dose: 100.0 mg/kg/injection, schedule: Q01DX009 (ip), vehicle: gum acacia) is 105 % of control; the T/C (endpoint: mean survival time, dose: 100.0 mg/kg/injection, schedule: Q04DX003 (ip), vehicle: gum acacia) was 97 % of control; the T/C (endpoint: mean survival time, dose: 200.0 mg/kg/injection, schedule: Q01DX009 (ip), vehicle: gum acacia) was 89 % of control; the T/C (endpoint: mean survival time, dose: 400.0 mg/kg/injection, schedule: Q01DX009 (ip), vehicle: gum acacia) was 93 % of control; the T/C (endpoint: mean survival time, dose: 400.0 mg/kg/injection, schedule: Q04DX003 (ip), vehicle: gum acacia) is 94 % of control.
On to `CC(C)(C)C(=O)CC(=O)C(C)(C)C.CC(C)(C)C(=O)CC(=O)C(C)(C)C.[Zn]`, for which the T/C under setting [1] was 97 % of control and the T/C under setting [2] was 95 % of control.
As for `C=C(C)C1(CC)C(=O)NC(=O)N(C)C1=O` (configuration not stated), the T/C (endpoint: mean survival time, dose: 75.0 mg/kg/injection, schedule: Q01DX001 (ip), vehicle: carboxymethylcellulose (CMC)) is 102 % of control; the T/C (endpoint: mean survival time, dose: 75.0 mg/kg/injection, schedule: Q01DX001 (ip), vehicle: saline) was 97 % of control; the T/C (endpoint: mean survival time, dose: 150.0 mg/kg/injection, schedule: Q01DX001 (ip), vehicle: carboxymethylcellulose (CMC)) was 105 % of control; the T/C (endpoint: mean survival time, dose: 150.0 mg/kg/injection, schedule: Q01DX001 (ip), vehicle: saline) is 102 % of control; the T/C (endpoint: mean survival time, dose: 300.0 mg/kg/injection, schedule: Q01DX001 (ip), vehicle: carboxymethylcellulose (CMC)) was 103 % of control; the T/C (endpoint: mean survival time, dose: 300.0 mg/kg/injection, schedule: Q01DX001 (ip), vehicle: saline) was 108 % of control.
Regarding `O=C(NC(=S)NCc1ccncc1)c1ccccc1`, the T/C (endpoint: mean survival time, dose: 100.0 mg/kg/injection, schedule: Q04DX002 (ip), vehicle: Klucel (hydroxypropylcellulose) (HPC)) was 100 % of control; the T/C (endpoint: mean survival time, dose: 200.0 mg/kg/injection, schedule: Q04DX002 (ip), vehicle: Klucel (hydroxypropylcellulose) (HPC)) was 95 % of control; the T/C (endpoint: mean survival time, dose: 400.0 mg/kg/injection, schedule: Q04DX002 (ip), vehicle: Klucel (hydroxypropylcellulose) (HPC)) is 92 % of control.
For the molecule `Cn1cc(/C=C\[N+](=O)[O-])c2ccccc21`, the T/C by setting is: (endpoint: mean survival time, dose: 100.0 mg/kg/injection, schedule: Q01DX001 (ip), vehicle: saline) 98 % of control; (endpoint: mean survival time, dose: 200.0 mg/kg/injection, schedule: Q01DX001 (ip), vehicle: saline) 98 % of control; (endpoint: mean survival time, dose: 400.0 mg/kg/injection, schedule: Q01DX001 (ip), vehicle: saline) 98 % of control.
Consider `COC(=O)NS(=O)(=O)Nc1ccccc1`, for which the T/C by setting is: (endpoint: mean survival time, dose: 100.0 mg/kg/injection, schedule: Q04DX002 (ip), vehicle: saline with Tween-80) 97 % of control; (endpoint: mean survival time, dose: 200.0 mg/kg/injection, schedule: Q04DX002 (ip), vehicle: saline with Tween-80) 87 % of control; (endpoint: mean survival time, dose: 400.0 mg/kg/injection, schedule: Q04DX002 (ip), vehicle: saline with Tween-80) 94 % of control.
On to `CCCOc1ccc(-c2nc(-c3ccc(N=Cc4ccc(N(CCCOS(C)(=O)=O)CCCOS(C)(=O)=O)cc4)cc3)cs2)cc1`, for which the T/C under setting [1] was 91 % of control; the T/C under setting [2] is 86 % of control; the T/C (endpoint: mean survival time, dose: 400.0 mg/kg/injection, schedule: Q04DX003 (ip), vehicle: saline with Tween-80) is 89 % of control.
Consider `COc1cc(C=O)cc(O)c1O`, for which the T/C runs as follows: (endpoint: mean survival time, dose: 62.5 mg/kg/injection, schedule: Q01DX Z (ip), vehicle: saline) 96 % of control; (endpoint: mean survival time, dose: 500.0 mg/kg/injection, schedule: Q01DX Z (ip), vehicle: saline) 124 % of control.
Turning to `S=C(N/N=C/c1ccccc1Cl)Nc1ccccc1`, the T/C is 95 % of control (endpoint: mean survival time, dose: 100.0 mg/kg/injection, schedule: Q01DX009 (ip), vehicle: Klucel (hydroxypropylcellulose) (HPC)); 100 % of control (endpoint: mean survival time, dose: 200.0 mg/kg/injection, schedule: Q01DX009 (ip), vehicle: Klucel (hydroxypropylcellulose) (HPC)); 101 % of control (endpoint: mean survival time, dose: 400.0 mg/kg/injection, schedule: Q01DX009 (ip), vehicle: Klucel (hydroxypropylcellulose) (HPC)).
On to `C[N+](C)(C)c1ccc(NC(=O)c2ccc(C(=O)Nc3ccc([N+](C)(C)C)cc3)cc2)cc1`, for which the T/C was 93 % of control (endpoint: mean survival time, dose: 0.5 mg/kg/injection, schedule: Q01DX Z (ip), vehicle: saline); 102 % of control (endpoint: mean survival time, dose: 1.0 mg/kg/injection, schedule: Q01DX Z (ip), vehicle: saline); 97 % of control (endpoint: mean survival time, dose: 2.0 mg/kg/injection, schedule: Q01DX Z (ip), vehicle: saline).
